Experimental data published in patent publication US20250186521A1 (priority 2018, published 2025).

Key:
Format in all cases: in vivo, Broiler chickens
Eimeria maxima [1] = experiment: Cocci Test (Example 6): lesion score and OPG, Eimeria maxima; settings: 1.0 lb/t, infected
Excerpt: (§1) • 1. No Additive, no Cocci • 2. No Additive, Cocci • 3. Salinomycin 60 g/t, Cocci • 4.
(§2) Each group was replicated 10 times. Cages were blocked by location in the battery with block size equal to groups (7 cages per block). The study began when the birds were placed (day of hatch, i.e., DOT 0) at which time they were allocated to the experimental cages. Only healthy birds were selected (10 birds/cage).
(§3) An unmedicated commercial chicken feed composition compounded with feedstuffs commonly used in the U.S. poultry industry, such as cereals and proteins, was obtained. The diet was an all-vegetable feed with no antibiotics, organic acids, NSP enzymes, or direct fed microbial. This feed in mash form was fed ad libitum from the date of chick arrival until Day 28 of the study. Experimental feeds augmented with the algal biomass were prepared from this commercial poultry feed. The feeds were mixed to assure a uniform distribution of algal biomass into the mash feed. […]
(§4) On DOT 20, five birds from each cage were selected, sacrificed, weighed, and examined for the degree of presence of coccidia lesions. If less than five birds were present at time of scoring, all remaining birds within the cage were scored. […]
(§5) Means for cage weight gain, feed consumption, feed conversion rate, lesion scores, opgs, and mortality were calculated.

[2] = system: mixed E. acervulina, E. maxima, and E. tenella coccidial inoculum; experiment: Anticoccidial efficacy versus salinomycin (Example 5): performance, average lesion score, total OPG; settings: 60 g/t
Excerpt: (§6) • 1. No Additive, no Cocci. • 2. No Additive, Cocci. • 3. Salinomycin 60 g/t, Cocci. • 4. Product Z 0.551%, Cocci.
(§7) Cages were blocked by location in the battery with block size equal to the groups (8 cages per block). The study began when the birds were placed (day of hatch, i.e., DOT 0) at which time they were allocated to the experimental cages. Only healthy birds were selected (10 birds/cage).
(§8) Upon arrival, chicks were raised in Petersime battery cages. At placement the birds were fed the various feeds. The Petersime batteries were in an insulated building having a concrete floor and a metal overhead structure. The floor space per animal was 0.51 sq. ft. per bird. The feeder space per bird was 10 birds per 24×3.5-inch feeder. Uniform temperature and illumination was provided.
(§9) An unmedicated commercial chicken feed composition compounded with feedstuffs commonly used in the U.S. poultry industry, such as cereals and proteins, was obtained. The diet was an all-vegetable feed with no antibiotics, organic acids, NSP enzymes, or direct fed microbial. This feed in mash form was fed ad libitum from the date of chick arrival until Day 28 of the study. Experimental feeds augmented with the algal biomass were prepared from this commercial poultry feed. The feeds were mixed to assure a uniform distribution of algal biomass into the mash feed.
Day of hatch male broiler chicks of strain Cobb X Cobb were obtained from Cobb-Vantress, Cleveland, GA. Sets of ten chicks were randomly selected, group weighed and placed into cages. No birds were replaced during the study.
(§10) All birds were weighed by cage on DOT 0, 14, 20 and 28. Feed was weighed in on DOT 0 and remaining feed was weighed on DOT 14, 20, and 28.
Coccidial oocysts inoculation procedures were described. On Day 14 of the study all birds except Tl orally received a mixed E. acervulina, E. maxima, and E. tenella coccidial inoculum diluted to a 1 ml volume (p.o.). Inoculum level attempted to produce a moderate challenge.
(§11) On DOT 20, five birds from each cage were selected, sacrificed, weighed, and examined for the degree of presence of coccidia lesions. If less than five birds were present at time of scoring, all remaining birds within the cage were scored. The Johnson and Reid, 1970 method of coccidiosis lesion scoring was used to score the infected region(s) of the intestine. The scoring was based on a 0 to 4 score, with 0 being normal and 4 being the most severe.
(§12) Day 19 (Day 5 post challenge) drop pans from all cages were cleaned. Day 20 (Day 6 pc) mixed feces were collected from each cage. Each sample was examined for the number of oocysts per gram fecal material by fecal floatation.
as §5

[3] = system: mixed E. acervulina, E. maxima, and E. tenella coccidial inoculum; experiment: Cocci Test (Example 6): performance, average lesion score, total OPG; settings: 1.0 lb/t
Excerpt: as §1, §2
as §8, with “ft” for “ft.”
as §9
Day of hatch male broiler chicks of strain Cobb 500 were obtained from Cobb-Vantress, Cleveland, GA. Sets of ten chicks were randomly selected, group weighed and placed into cages. Number and disposition of all birds not used for allocation were documented. No birds were replaced during the study.
as §10
On Day 14 of the study all birds except Tl orally received a mixed E. acervulina, E. maxima, and E. tenella coccidial inoculum diluted to a 1 ml volume (p.o.). Inoculum level attempted to produce a moderate challenge.
as §11, §12, §5

Eimeria acervulina [4] = experiment: Anticoccidial efficacy (Example 5): lesion score and OPG, Eimeria acervulina; settings: 60 g/t, infected
Excerpt: as §6, §7, §3, §4, §5

Eimeria acervulina [5] = experiment: Cocci Test (Example 6): lesion score and OPG, Eimeria acervulina; settings: 1.0 lb/t, infected
Excerpt: as §1, §2, §3, §4, §5

Eimeria tenella [6] = experiment: Anticoccidial efficacy (Example 5): lesion score and OPG, Eimeria tenella; settings: 60 g/t, infected
Excerpt: as §6, §7, §3, §4, §5

Eimeria maxima [7] = experiment: Anticoccidial efficacy (Example 5): lesion score and OPG, Eimeria maxima; settings: 60 g/t, infected
Excerpt: as §6, §7, §3, §4, §5

Eimeria tenella [8] = experiment: Cocci Test (Example 6): lesion score and OPG, Eimeria tenella; settings: 1.0 lb/t, infected
Excerpt: as §1, §2, §3, §4, §5

CC[C@@H](C(=O)[C@@H](C)[C@@H](O)[C@H](C)[C@@H]1O[C@@H]([C@@H](CC)C(=O)O)CC[C@@H]1C)[C@H]1O[C@]2(C=C[C@@H](O)[C@]3(CC[C@@](C)([C@H]4CC[C@](O)(CC)[C@H](C)O4)O3)O2)[C@H](C)C[C@@H]1C [Salinomycin]
Lesion Scores Eimeria maxima (Eimeria maxima [1]; DOT 20, 0 to 4 score): 1.7b | OPG Eimeria maxima (Eimeria maxima [1]; Day 20 feces): 2608a OPG | FCR Day 0-20 ([2]; infected): 1.597bc | FCR Day 0-28 ([2]; infected): 1.625bc | FCR Day 14-20 ([2]; infected): 1.744b | FCR Day 14-28 ([2]; infected): 1.766c | Feed Intake Day 0-20 ([2]; infected): 5.433a | Feed Intake Day 0-28 ([2]; infected): 5.918a | Feed Intake Day 14-20 ([2]; infected): 3.049a | Feed Intake Day 14-28 ([2]; infected): 3.534a | Wt. Gain Day 0-20 ([2]; infected): 0.360b | Wt. Gain Day 0-28 ([2]; infected): 0.376b | Wt. Gain Day 14-20 ([2]; infected): 0.185b | Wt. Gain Day 14-28 ([2]; infected): 0.202b | FCR Day 14 ([2]; infected on Day 14): 1.156a | Feed Intake Day 14 ([2]; infected on Day 14): 2.384a | Wt. Gain Day 14 ([2]; infected on Day 14): 0.218a | Lesion Scores Avg. ([2]; infected, DOT 20, 0 to 4 score): 1.3c | OPG Total Avg. ([2]; infected, Day 20 feces): 9722b OPG | FCR Day 0-20 ([3]; infected): 1.876ab | FCR Day 0-28 ([3]; infected): 1.832a | FCR Day 14-20 ([3]; infected): 1.839b | FCR Day 14-28 ([3]; infected): 1.789a | Feed Intake Day 0-20 ([3]; infected): 7.064b | Feed Intake Day 0-28 ([3]; infected): 9.852bc | Feed Intake Day 14-20 ([3]; infected): 3.628b | Feed Intake Day 14-28 ([3]; infected): 6.416b | Wt. Gain Day 0-20 ([3]; infected): 0.382b | Wt. Gain Day 0-28 ([3]; infected): 0.718bc | Wt. Gain Day 14-20 ([3]; infected): 0.201b | Wt. Gain Day 14-28 ([3]; infected): 0.537b | FCR Day 14 ([3]; infected on Day 14): 1.491a | Feed Intake Day 14 ([3]; infected on Day 14): 3.436ab | Wt. Gain Day 14 ([3]; infected on Day 14): 0.232b | Lesion Scores Avg. ([3]; infected, DOT 20, 0 to 4 score): 1.5c | OPG Total Avg. ([3]; infected, Day 20 feces): 35.178c OPG | Lesion Scores Eimeria acervulina (Eimeria acervulina [4]; DOT 20, 0 to 4 score): 2.1c | OPG Eimeria acervulina (Eimeria acervulina [4]; Day 20 feces): 4511c OPG | Lesion Scores Eimeria acervulina (Eimeria acervulina [5]; DOT 20, 0 to 4 score): 1.7c | OPG Eimeria acervulina (Eimeria acervulina [5]; Day 20 feces): 30802c OPG | Lesion Scores Eimeria tenella (Eimeria tenella [6]; DOT 20, 0 to 4 score): 0.7c | OPG Eimeria tenella (Eimeria tenella [6]; Day 20 feces): 4727c OPG | Lesion Scores Eimeria maxima (Eimeria maxima [7]; DOT 20, 0 to 4 score): 0.9c | OPG Eimeria maxima (Eimeria maxima [7]; Day 20 feces): 484b OPG | Lesion Scores Eimeria tenella (Eimeria tenella [8]; DOT 20, 0 to 4 score): 1.1b | OPG Eimeria tenella (Eimeria tenella [8]; Day 20 feces): 1768b OPG
